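Each compound was tested at five concentrations against cells in 96-well plates for 48 hours. Abbreviation: GI50, concentration required for 50% inhibition of growth.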 Active and inactive are the calls of the source. Cut-off read from the data, not from the text of the source: active = GI50 up to about 1.1 µM and inactive = higher. Peptide text beside a SMILES is read from it. * marks the point of attachment. Cbz = O=C(OCc1ccccc1)*
How the values were obtained:
Assay in all cases: NCI tumour cell line growth inhibition, 48 h
RPMI-8226 = system: RPMI-8226
UO-31 = system: UO-31
SK-MEL-28 = system: SK-MEL-28
SK-OV-3 = system: SK-OV-3
ACHN = system: ACHN
HT-29 = system: HT-29
SR = system: SR
NCI/ADR-RES = system: NCI/ADR-RES
HOP-92 = system: HOP-92
MCF7 = system: MCF7
HCC 2998 = system: HCC 2998
Hs-578T = system: Hs-578T
NCI-H226 = system: NCI-H226
CCRF-CEM = system: CCRF-CEM
UACC-62 = system: UACC-62
HOP-62 = system: HOP-62
Malme-3M = system: Malme-3M
PC-3 = system: PC-3
OVCAR-8 = system: OVCAR-8

Compound | GI50 (RPMI-8226) | GI50 (UO-31) | GI50 (SK-MEL-28) | GI50 (SK-OV-3) | GI50 (ACHN) | GI50 (HT-29) | GI50 (SR) | GI50 (NCI/ADR-RES) | GI50 (HOP-92) | GI50 (MCF7) | GI50 (HCC 2998) | GI50 (Hs-578T) | GI50 (NCI-H226) | GI50 (CCRF-CEM) | GI50 (UACC-62) | GI50 (HOP-62) | GI50 (Malme-3M) | GI50 (PC-3) | GI50 (OVCAR-8)
CC(Cc1ccc(O)c(O)c1)C(C)Cc1ccc(O)c(O)c1 (stereo not given) [NORDIHYDROGUAIARETIC ACID] | 10.1 µM (inactive) | 9.55 µM (inactive) | 16.2 µM (inactive) | 21.5 µM (inactive) | 16.1 µM (inactive) | 22.9 µM (inactive) | 9.79 µM (inactive) | 22.8 µM (inactive) | 3.14 µM (inactive) | 20.2 µM (inactive) | 19.1 µM (inactive) | 16.9 µM (inactive) | 22.5 µM (inactive) | 4.38 µM (inactive) | 16 µM (inactive) | 17.1 µM (inactive) | 15.9 µM (inactive) | 21.9 µM (inactive) | 17.4 µM (inactive)
CN(C)c1ccc(/C=C/C(=O)c2ccc(O)cc2)cc1 | 3.85 µM (inactive) | 14.4 µM (inactive) | 4.88 µM (inactive) | 4.78 µM (inactive) | 18.8 µM (inactive) | 5.21 µM (inactive) | 0.33 µM (active) | 2.98 µM (inactive) | 38.2 µM (inactive) | 4.11 µM (inactive) | 15.1 µM (inactive) | 17.4 µM (inactive) | 56.4 µM (inactive) | 2.83 µM (inactive) | 4.08 µM (inactive) | 10.1 µM (inactive) | 8.45 µM (inactive) | 14.8 µM (inactive) | 7.29 µM (inactive)
O=C1C2C=CC1C1C(=O)OC(=O)C21 (stereo not given) | > 100 µM (inactive) | > 100 µM (inactive) | > 100 µM (inactive) | > 100 µM (inactive) | > 100 µM (inactive) | > 100 µM (inactive) | > 100 µM (inactive) | > 100 µM (inactive) | > 100 µM (inactive) | > 100 µM (inactive) | > 100 µM (inactive) | > 100 µM (inactive) | > 100 µM (inactive) | > 100 µM (inactive) | > 100 µM (inactive) | > 100 µM (inactive) | > 100 µM (inactive) | > 100 µM (inactive) | > 100 µM (inactive)
O=c1c(=O)c2c(Br)sc(Br)c2c1=O | 21.6 µM (inactive) | 33 µM (inactive) | 14.7 µM (inactive) | 43.8 µM (inactive) | 20.6 µM (inactive) | 25 µM (inactive) | 20.6 µM (inactive) | 32.7 µM (inactive) | 17.9 µM (inactive) | 20.3 µM (inactive) | 57.3 µM (inactive) | 31 µM (inactive) | > 100 µM (inactive) | – | 20.1 µM (inactive) | 30.2 µM (inactive) | 17.7 µM (inactive) | 19.2 µM (inactive) | 18.3 µM (inactive)
O=C(Nc1ccccc1C(=O)O)/C(=C/c1ccccc1)NC(=O)c1ccccc1 | > 100 µM (inactive) | > 100 µM (inactive) | > 100 µM (inactive) | > 100 µM (inactive) | > 100 µM (inactive) | > 100 µM (inactive) | > 100 µM (inactive) | > 100 µM (inactive) | > 100 µM (inactive) | > 100 µM (inactive) | > 100 µM (inactive) | > 100 µM (inactive) | > 100 µM (inactive) | > 100 µM (inactive) | > 100 µM (inactive) | > 100 µM (inactive) | > 100 µM (inactive) | > 100 µM (inactive) | > 100 µM (inactive)
NC(Cc1ccc(O)cn1)C(=O)NC(C(=O)O)c1ccccc1 (stereo not given) | > 100 µM (inactive) | > 100 µM (inactive) | > 100 µM (inactive) | – | > 100 µM (inactive) | > 100 µM (inactive) | > 100 µM (inactive) | > 100 µM (inactive) | > 100 µM (inactive) | > 100 µM (inactive) | > 100 µM (inactive) | > 100 µM (inactive) | > 100 µM (inactive) | > 100 µM (inactive) | – | > 100 µM (inactive) | > 100 µM (inactive) | > 100 µM (inactive) | > 100 µM (inactive)
NS(=O)(=O)c1ccc(/N=N/c2ccc(O)c(O)c2)cc1 | 10.7 µM (inactive) | 11.2 µM (inactive) | 18.1 µM (inactive) | 23.3 µM (inactive) | 3.22 µM (inactive) | 27.2 µM (inactive) | 3.05 µM (inactive) | 16.9 µM (inactive) | 23.7 µM (inactive) | 27.5 µM (inactive) | 21.2 µM (inactive) | 20 µM (inactive) | 14.5 µM (inactive) | 3.56 µM (inactive) | – | 27.4 µM (inactive) | 21.3 µM (inactive) | 20.6 µM (inactive) | 4.88 µM (inactive)
CCCCCCCC(=O)N/N=C/c1ccc(Sc2nccn2C)c([N+](=O)[O-])c1 | 13 µM (inactive) | 10.3 µM (inactive) | 13.9 µM (inactive) | 26.7 µM (inactive) | 21.9 µM (inactive) | 9.79 µM (inactive) | 18.8 µM (inactive) | 17.7 µM (inactive) | 3.33 µM (inactive) | 16.6 µM (inactive) | 13.4 µM (inactive) | 18.5 µM (inactive) | 14.5 µM (inactive) | 0.538 µM (active) | 13 µM (inactive) | 17.5 µM (inactive) | 14.4 µM (inactive) | 15.6 µM (inactive) | 14.4 µM (inactive)
O=C(O)CCC(NC(=O)OCc1ccccc1)C(=O)NC(Cc1c[nH]cn1)C(=O)O (stereo not drawn) (Cbz-Glu-His-OH; configuration not given here) | > 100 µM (inactive) | > 100 µM (inactive) | > 100 µM (inactive) | > 100 µM (inactive) | > 100 µM (inactive) | > 100 µM (inactive) | > 100 µM (inactive) | > 100 µM (inactive) | > 100 µM (inactive) | > 100 µM (inactive) | > 100 µM (inactive) | > 100 µM (inactive) | > 100 µM (inactive) | > 100 µM (inactive) | > 100 µM (inactive) | > 100 µM (inactive) | > 100 µM (inactive) | > 100 µM (inactive) | > 100 µM (inactive)
Cc1ccc(-c2nnc(-c3ccc4ccccc4c3)o2)cc1 | 6.78 µM (inactive) | 15.1 µM (inactive) | 33.3 µM (inactive) | 56.2 µM (inactive) | > 100 µM (inactive) | > 87.9 µM (inactive) | 7.36 µM (inactive) | 12.7 µM (inactive) | > 51.6 µM (inactive) | > 100 µM (inactive) | > 100 µM (inactive) | 23 µM (inactive) | 25.2 µM (inactive) | 3.55 µM (inactive) | 13 µM (inactive) | 18 µM (inactive) | 5.38 µM (inactive) | 52.2 µM (inactive) | 12.4 µM (inactive)
COC(=O)C12C3C4C1C1C2C3C41C(=O)NC(C)(C)CC(=O)O (stereo not given) | > 100 µM (inactive) | > 100 µM (inactive) | > 100 µM (inactive) | – | > 100 µM (inactive) | > 100 µM (inactive) | > 100 µM (inactive) | > 100 µM (inactive) | > 100 µM (inactive) | > 100 µM (inactive) | > 100 µM (inactive) | > 100 µM (inactive) | > 100 µM (inactive) | > 100 µM (inactive) | > 100 µM (inactive) | > 100 µM (inactive) | > 100 µM (inactive) | > 100 µM (inactive) | > 100 µM (inactive)
C=CC(Br)(CBr)CCC(Br)C(C)(C)Cl (stereo not given) | 0.579 µM (active) | 1.65 µM (inactive) | 2.36 µM (inactive) | 16.3 µM (inactive) | 2.42 µM (inactive) | 1.53 µM (inactive) | 1.66 µM (inactive) | 3.92 µM (inactive) | 2.04 µM (inactive) | 1.83 µM (inactive) | 6.22 µM (inactive) | 3.4 µM (inactive) | 25.3 µM (inactive) | 2.22 µM (inactive) | 4.78 µM (inactive) | 3.78 µM (inactive) | 6.27 µM (inactive) | 3.27 µM (inactive) | 4.42 µM (inactive)
NS(=O)(=O)c1nnc(/N=C(/CCC(=O)O)C(=O)O)s1 | > 100 µM (inactive) | > 100 µM (inactive) | > 100 µM (inactive) | > 100 µM (inactive) | > 100 µM (inactive) | > 100 µM (inactive) | > 100 µM (inactive) | > 100 µM (inactive) | > 100 µM (inactive) | > 100 µM (inactive) | > 100 µM (inactive) | > 100 µM (inactive) | > 100 µM (inactive) | > 100 µM (inactive) | > 100 µM (inactive) | > 100 µM (inactive) | 41.3 µM (inactive) | > 100 µM (inactive) | > 100 µM (inactive)
O=[N+]([O-])c1cccc2nc3ccccc3c(NCCCN3CCOCC3)c12 | 0.0103 µM (active) | 0.0144 µM (active) | 0.034 µM (active) | 0.0362 µM (active) | < 0.01 µM (active) | < 0.01 µM (active) | < 0.01 µM (active) | 0.044 µM (active) | 0.0159 µM (active) | < 0.0116 µM (active) | < 0.01 µM (active) | 0.0405 µM (active) | 0.0213 µM (active) | < 0.0199 µM (active) | 0.0163 µM (active) | < 0.016 µM (active) | 0.0142 µM (active) | 0.0219 µM (active) | 0.012 µM (active)
C=C1c2nc3ccccc3n2C=C(c2ccccc2)N1c1ccc(Cl)cc1 | > 55.3 µM (inactive) | 53.1 µM (inactive) | > 100 µM (inactive) | 27.3 µM (inactive) | 9.18 µM (inactive) | 18.6 µM (inactive) | 64.7 µM (inactive) | 23.6 µM (inactive) | 26.8 µM (inactive) | 11.2 µM (inactive) | 65.6 µM (inactive) | 21.3 µM (inactive) | 29 µM (inactive) | > 100 µM (inactive) | 19.1 µM (inactive) | 18.7 µM (inactive) | 7.85 µM (inactive) | 25.7 µM (inactive) | 25.1 µM (inactive)
